Reference: patent US20230017045A1, “PYRIDINE AND PYRIMIDINE CARBOXYLATE HERBICIDES AND METHODS OF USE THEREOF” (Dow AgroSciences LLC, priority 2017, published 2023)

These molecules were tested on test plant species (assay: Post-emergent herbicidal activity test (greenhouse, foliar spray, visual growth reduction)). Settings: post-emergence, 336 h, ALOMY: blackgrass (Alopecurus myosuroides), 140 g ai/ha, 14 days after application, read-out: Visual Growth Reduction (%) 14 Days After Application, ALOMY.
Type: in vivo
Outline: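 Visual scoring 14 d after treatment (0 = no injury, 100 = complete control) against nontreated and solvent-blank plants gave percent growth reduction. Foliar application used a track sprayer delivering 187 L/ha to seedlings at first or second true leaf stage, grown at 23–29 °C day, ~15 h photoperiod.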
`COC(=O)c1nc(-c2ccc(C(F)(F)F)cc2Cl)c(SC)cc1Cl` [F7, methyl 3-chloro-6-(2-chloro-4-(trifluoromethyl)phenyl)-5-(methylthio)picolinate] gave a pest or weed control at 140 g/ha of 0 to 29%. With `COC(=O)c1nc(-c2ccc(Cl)c(F)c2F)ccc1Cl` [F71, Methyl 3-chloro-6-(4-chloro-2,3-difluorophenyl) picolinate] the pest or weed control at 140 g/ha was 0 to 29%.

Same assay, conditions: post-emergence, 336 h, AMARE: redroot pigweed (Amaranthus retroflexus), 140 g ai/ha, 14 days after application, read-out: Visual Growth Reduction (%) 14 Days After Application, AMARE
In the case of `COC(=O)c1nc(-c2ccc(C(F)(F)F)cc2Cl)c(SC)cc1Cl` [F7, methyl 3-chloro-6-(2-chloro-4-(trifluoromethyl)phenyl)-5-(methylthio)picolinate], the pest or weed control at 140 g/ha is reported as 0 to 29%. With `COC(=O)c1nc(-c2ccc(Cl)c(F)c2F)ccc1Cl` [F71, Methyl 3-chloro-6-(4-chloro-2,3-difluorophenyl) picolinate] the pest or weed control at 140 g/ha was 95 to 100%.

Same assay, conditions: post-emergence, 336 h, AVEFA: wild oat (Avena fatua), 140 g ai/ha, 14 days after application, read-out: Visual Growth Reduction (%) 14 Days After Application, AVEFA
Work on `COC(=O)c1nc(-c2ccc(C(F)(F)F)cc2Cl)c(SC)cc1Cl` [F7, methyl 3-chloro-6-(2-chloro-4-(trifluoromethyl)phenyl)-5-(methylthio)picolinate] yielded a pest or weed control at 140 g/ha of 0 to 29%. Work on `COC(=O)c1nc(-c2ccc(Cl)c(F)c2F)ccc1Cl` [F71, Methyl 3-chloro-6-(4-chloro-2,3-difluorophenyl) picolinate] yielded a pest or weed control at 140 g/ha of 0 to 29%.

Same assay, conditions: post-emergence, 336 h, CHEAL: lambsquarters (Chenopodium album), 140 g ai/ha, 14 days after application, read-out: Visual Growth Reduction (%) 14 Days After Application, CHEAL
In the case of `COC(=O)c1nc(-c2ccc(C(F)(F)F)cc2Cl)c(SC)cc1Cl` [F7, methyl 3-chloro-6-(2-chloro-4-(trifluoromethyl)phenyl)-5-(methylthio)picolinate], the pest or weed control at 140 g/ha is reported as 0 to 29%. For `COC(=O)c1nc(-c2ccc(Cl)c(F)c2F)ccc1Cl` [F71, Methyl 3-chloro-6-(4-chloro-2,3-difluorophenyl) picolinate], the pest or weed control at 140 g/ha was 95 to 100%.

Same assay, conditions: post-emergence, 336 h, CIRAR: canada thistle (Cirsium arvense), 140 g ai/ha, 14 days after application, read-out: Visual Growth Reduction (%) 14 Days After Application, CIRAR
Work on `COC(=O)c1nc(-c2ccc(C(F)(F)F)cc2Cl)c(SC)cc1Cl` [F7, methyl 3-chloro-6-(2-chloro-4-(trifluoromethyl)phenyl)-5-(methylthio)picolinate] yielded a pest or weed control at 140 g/ha of 0 to 29%. Molecule `COC(=O)c1nc(-c2ccc(Cl)c(F)c2F)ccc1Cl` [F71, Methyl 3-chloro-6-(4-chloro-2,3-difluorophenyl) picolinate] has a pest or weed control at 140 g/ha of 75 to 84%.

Same assay, conditions: post-emergence, 336 h, CYPES: yellow nutsedge (Cyperus esculentus), 140 g ai/ha, 14 days after application, read-out: Visual Growth Reduction (%) 14 Days After Application, CYPES
With `COC(=O)c1nc(-c2ccc(C(F)(F)F)cc2Cl)c(SC)cc1Cl` [F7, methyl 3-chloro-6-(2-chloro-4-(trifluoromethyl)phenyl)-5-(methylthio)picolinate] the pest or weed control at 140 g/ha was 0 to 29%. Work on `COC(=O)c1nc(-c2ccc(Cl)c(F)c2F)ccc1Cl` [F71, Methyl 3-chloro-6-(4-chloro-2,3-difluorophenyl) picolinate] yielded a pest or weed control at 140 g/ha of 60 to 74%.

Same assay, conditions: post-emergence, 336 h, DIGSA: crabgrass (Digitaria sanguinalis), 140 g ai/ha, 14 days after application, read-out: Visual Growth Reduction (%) 14 Days After Application, DIGSA
Work on `COC(=O)c1nc(-c2ccc(C(F)(F)F)cc2Cl)c(SC)cc1Cl` [F7, methyl 3-chloro-6-(2-chloro-4-(trifluoromethyl)phenyl)-5-(methylthio)picolinate] yielded a pest or weed control at 140 g/ha of 0 to 29%. In the case of `COC(=O)c1nc(-c2ccc(Cl)c(F)c2F)ccc1Cl` [F71, Methyl 3-chloro-6-(4-chloro-2,3-difluorophenyl) picolinate], the pest or weed control at 140 g/ha is reported as 75 to 84%.

Same assay, conditions: post-emergence, 336 h, ECHCG: barnyardgrass (Echinochloa crus-galli), 140 g ai/ha, 14 days after application, read-out: Visual Growth Reduction (%) 14 Days After Application, ECHCG
With `COC(=O)c1nc(-c2ccc(Cl)c(F)c2F)ccc1Cl` [F71, Methyl 3-chloro-6-(4-chloro-2,3-difluorophenyl) picolinate] the pest or weed control at 140 g/ha was 0 to 29%.

Same assay, conditions: post-emergence, 336 h, IPOHE: ivy-leaf morning glory (Ipomoea hederacea), 140 g ai/ha, 14 days after application, read-out: Visual Growth Reduction (%) 14 Days After Application, IPOHE
`COC(=O)c1nc(-c2ccc(Cl)c(F)c2F)ccc1Cl` [F71, Methyl 3-chloro-6-(4-chloro-2,3-difluorophenyl) picolinate] gave a pest or weed control at 140 g/ha of 95 to 100%.

Same assay, conditions: post-emergence, 336 h, ORYSA: rice (Oryza sativa), 140 g ai/ha, 14 days after application, read-out: Visual Growth Reduction (%) 14 Days After Application, ORYSA
For `COC(=O)c1nc(-c2ccc(Cl)c(F)c2F)ccc1Cl` [F71, Methyl 3-chloro-6-(4-chloro-2,3-difluorophenyl) picolinate], the pest or weed control at 140 g/ha was 30 to 44%.

Same assay, conditions: post-emergence, 336 h, SORVU: grain sorghum (Sorghum vulgare), 140 g ai/ha, 14 days after application, read-out: Visual Growth Reduction (%) 14 Days After Application, SORVU
Work on `COC(=O)c1nc(-c2ccc(Cl)c(F)c2F)ccc1Cl` [F71, Methyl 3-chloro-6-(4-chloro-2,3-difluorophenyl) picolinate] yielded a pest or weed control at 140 g/ha of 75 to 84%.

Same assay, conditions: post-emergence, 336 h, STEME: common chickweed (Stellaria media), 140 g ai/ha, 14 days after application, read-out: Visual Growth Reduction (%) 14 Days After Application, STEME
Work on `COC(=O)c1nc(-c2ccc(Cl)c(F)c2F)ccc1Cl` [F71, Methyl 3-chloro-6-(4-chloro-2,3-difluorophenyl) picolinate] yielded a pest or weed control at 140 g/ha of 45 to 59%.

Same assay, conditions: post-emergence, 336 h, barnyardgrass (Echinochloa crus-galli), 14 Days After Application, 140 g ai/ha, read-out: Visual Growth Reduction (%) ECHCG
`COC(=O)c1nc(-c2ccc(C(F)(F)F)cc2Cl)c(SC)cc1Cl` [F7, methyl 3-chloro-6-(2-chloro-4-(trifluoromethyl)phenyl)-5-(methylthio)picolinate] showed a pest or weed control at 140 g/ha of 0 to 29%.

Same assay, conditions: post-emergence, 336 h, common chickweed (Stellaria media), 14 Days After Application, 140 g ai/ha, read-out: Visual Growth Reduction (%) STEME
Work on `COC(=O)c1nc(-c2ccc(C(F)(F)F)cc2Cl)c(SC)cc1Cl` [F7, methyl 3-chloro-6-(2-chloro-4-(trifluoromethyl)phenyl)-5-(methylthio)picolinate] yielded a pest or weed control at 140 g/ha of 0 to 29%.

Same assay, conditions: post-emergence, 336 h, giant foxtail (Setaria faberi), 14 Days After Application, 140 g ai/ha, read-out: Visual Growth Reduction (%) SETFA
Work on `COC(=O)c1nc(-c2ccc(C(F)(F)F)cc2Cl)c(SC)cc1Cl` [F7, methyl 3-chloro-6-(2-chloro-4-(trifluoromethyl)phenyl)-5-(methylthio)picolinate] yielded a pest or weed control at 140 g/ha of 0 to 29%.

Same assay, conditions: post-emergence, 336 h, ivy-leaf morning glory (Ipomoea hederacea), 14 Days After Application, 140 g ai/ha, read-out: Visual Growth Reduction (%) IPOHE
Work on `COC(=O)c1nc(-c2ccc(C(F)(F)F)cc2Cl)c(SC)cc1Cl` [F7, methyl 3-chloro-6-(2-chloro-4-(trifluoromethyl)phenyl)-5-(methylthio)picolinate] yielded a pest or weed control at 140 g/ha of 0 to 29%.

Same assay, conditions: post-emergence, 336 h, johnsongrass (Sorghum vulgare), 14 Days After Application, 140 g ai/ha, read-out: Visual Growth Reduction (%) SORVU
In the case of `COC(=O)c1nc(-c2ccc(C(F)(F)F)cc2Cl)c(SC)cc1Cl` [F7, methyl 3-chloro-6-(2-chloro-4-(trifluoromethyl)phenyl)-5-(methylthio)picolinate], the pest or weed control at 140 g/ha is reported as 0 to 29%.

Same assay, conditions: post-emergence, 336 h, kochia (Bassia scoparia), 14 Days After Application, 140 g ai/ha, read-out: Visual Growth Reduction (%) KCHSC
With `COC(=O)c1nc(-c2ccc(C(F)(F)F)cc2Cl)c(SC)cc1Cl` [F7, methyl 3-chloro-6-(2-chloro-4-(trifluoromethyl)phenyl)-5-(methylthio)picolinate] the pest or weed control at 140 g/ha was 0 to 29%.

Same assay, conditions: post-emergence, 336 h, rice (Oryza sativa), 14 Days After Application, 140 g ai/ha, read-out: Visual Growth Reduction (%) ORYSA
Molecule `COC(=O)c1nc(-c2ccc(C(F)(F)F)cc2Cl)c(SC)cc1Cl` [F7, methyl 3-chloro-6-(2-chloro-4-(trifluoromethyl)phenyl)-5-(methylthio)picolinate] has a pest or weed control at 140 g/ha of 0 to 29%.

Same assay, conditions: post-emergence, 336 h, wheat, spring (Triticum aestivum), 14 Days After Application, 140 g ai/ha, read-out: Visual Growth Reduction (%) TRZAS
With `COC(=O)c1nc(-c2ccc(C(F)(F)F)cc2Cl)c(SC)cc1Cl` [F7, methyl 3-chloro-6-(2-chloro-4-(trifluoromethyl)phenyl)-5-(methylthio)picolinate] the pest or weed control at 140 g/ha was 0 to 29%.
